Assay results taken from paper PMC3821907, “Synthesis of Novel Compounds as New Potent Tyrosinase Inhibitors” (BioMed Research International, 2013).

Key:
mushroom tyrosinase = assay: Tyrosinase inhibition assay (diphenolase activity, L-DOPA substrate); format: biochemical; conditions: L-DOPA 0.5 mM, pH 6.8, 25°C, mean ± SEM, read-out: IC50 ± SEM, tyrosinase inhibitory activity
Experimental: The spectrophotometric assay for tyrosinase was performed according to the method Ref 15. Briefly, all the synthesized compounds were screened for the diphenolase inhibitory activity of tyrosinase using L-DOPA as substrate. All the compounds were dissolved in DMSO. The final concentration of DMSO in the test solution was 2.0%. Phosphate buffer, pH=6.8, was used to dilute the DMSO stock solution of test compounds. Thirty units of mushroom tyrosinase (0.5 mg/mL) were first preincubated with the compounds, in 50 mM phosphate buffer (pH 6.8), for 10 min at 25°C. Then the L-DOPA (0.5 mM) was added to the reaction mixture, and the enzyme reaction was monitored by measuring the change in absorbance at 475 nm of formation of the L-DOPA chrome for 10 min. The measurement was performed in triplicate for each concentration and averaged before further calculation. […] The percent of inhibition of tyrosinase reaction was calculated as the following: Inhibition (%) = [B−S/B] × 100. Here, the B and S are the absorbances for the blank and samples.

[1] = tested on: B16F10 mouse melanoma cells; assay: Inhibition of melanin production; format: cell-based; conditions: 72 h; for inhibition at 20 µg/mL: B16-F10, 20 μg/mL
Experimental: (§1) Also inhibitions of the compounds 5a–5f were tested on melanin production and their cytotoxicity on B16F10 mouse melanoma cells at concentrations of 20 μg/mL.
Melanin production inhibition was ascertained by method of Wang et al.. A total of 8 × 10^4 cells were added to 60 mm plates and were incubated at 37°C in a CO2 incubator, then, 10 μL test samples in DMSO were added to plates and were incubated for 72 hours at 37°C in a CO2 incubator. After washing with PBS, cells were destroyed with 1 mL of 1 N NaOH, and 200 μL portions of raw cell extracts were moved to 96-well plates. Melanin production inhibition was determined by recording absorbance at 495 nm. The effects of test samples on melanin contents are stated as percent inhibitions of the value obtained in B16F10 mouse melanoma cells which were cultured with DMSO alone.

Cytotoxicity assay (MTT) = format: cell-based; conditions: B16F10 mouse melanoma cells, read-out: Cytotoxicity cell viability (%)
Experimental: as §1
Cytotoxicity assays were performed using a microculture MTT method described by Han et al.. A B16F10 mouse melanoma cell suspension was poured into a 96-well plate (10^3 cells/well), and cells were allowed to completely stick […] overnight. Test samples were then added to the plate and were incubated at 37°C for 72 h in a CO2 incubator. 20 μL of MTT solution (2 mg/mL) was then added per well and incubated for 4 hours. Supernatant was then removed, and formazan was solubilized by adding 150 μL DMSO to each well with mild shaking. Absorbance at 490 nm was recorded using an ELISA plate reader.

SMILES	IC50 (mushroom tyrosinase)	melting point	inhibition at 20 µg/mL [1]	viability at 72 h, 20 μg/mL (Cytotoxicity assay (MTT))	inhibition at 200 µg/mL ([1]; B16-F10, tested at 200 µg/mL)	viability at 72 h, 200 µg/mL (Cytotoxicity assay (MTT); tested at 200 µg/mL)
Cc1ccc(SC(=O)/C(=C\c2ccc(OC(F)(F)F)cc2)NC(=O)c2ccc(/N=N/c3ccc(N(C)C)cc3)cc2)c(S)c1 [Compound 5b, 4-Methyl-2-sulfanylphenyl(E)-2-[(4-{(E)-2-[4-(dimethylamino)phenyl]-1-diazenyl}benzoyl)amino]-3-[4-(trifluoromethoxy)phenyl]-2-propenethioate]	3860 ± 660 nM	286 °C (dec.)	41 ± 4.33%	80.1 ± 1.89%	–	–
O=c1cc(CO)occ1O [Kojic acid, reference compound]	–	–	–	–	17.3 ± 1.29%	81.7 ± 1.23%
Cc1ccc(SC(=O)/C(=C\c2ccc(F)cc2)NC(=O)c2ccc(/N=N/c3ccc(N(C)C)cc3)cc2)c(S)c1 [Compound 5a, 4-Methyl-2-sulfanylphenyl(E)-2-[(4-{(E)-2-[4-(dimethylamino)phenyl]-1-diazenyl}benzoyl)amino]-3-(4-fluorophenyl)-2-propenethioate]	4390 ± 760 nM	293 °C (dec.)	42.1 ± 0.75%	82.2 ± 3.55%	–	–

Further lines, with some results ahead:

IC50 (mushroom tyrosinase)	melting point	SMILES	inhibition at 20 µg/mL [1]	viability at 72 h, 20 μg/mL (Cytotoxicity assay (MTT))	inhibition at 200 µg/mL ([1]; B16-F10, tested at 200 µg/mL)	viability at 72 h, 200 µg/mL (Cytotoxicity assay (MTT); tested at 200 µg/mL)
2480 ± 880 nM	318 °C (dec.)	CC(=O)Oc1c(/N=N/c2ccc(C(=O)N/C(=C/c3ccc(OC(F)(F)F)cc3)C(=O)Sc3ccc(C)cc3S)cc2)ccc2ccccc12 [Compound 5d, 2-((E)-2-{4-[({(E)-1-{[(4-Methyl-2-sulfanylphenyl)sulfanyl]carbonyl}-2-[4-(trifluoromethoxy)phenyl]-1-ethenyl}amino)carbonyl]phenyl}-1-diazenyl)-1-naphthyl Acetate]	37.5 ± 4.09%	84.7 ± 5.38%	–	–
1980 ± 390 nM	325 °C (dec.)	CC(=O)Oc1ccc2ccccc2c1/N=N/c1ccc(C(=O)N/C(=C/c2ccc(F)cc2)C(=O)Sc2ccc(C)cc2S)cc1 [Compound 5e, 1-[(E)-2-(4-{[((E)-2-(4-fluorophenyl)-1-{[(4-methyl-2-sulfanylphenyl)sulfanyl]carbonyl}-1-ethenyl)amino]carbonyl}phenyl)-1-diazenyl]-2-naphthyl Acetate]	36.8 ± 1.44%	81.9 ± 1.08%	–	–
2680 ± 550 nM	308 °C (dec.)	CC(=O)Oc1c(/N=N/c2ccc(C(=O)N/C(=C/c3ccc(F)cc3)C(=O)Sc3ccc(C)cc3S)cc2)ccc2ccccc12 [Compound 5c, 2-[(E)-2-(4-{[((E)-2-(4-fluorophenyl)-1-{[(4-methyl-2-sulfanylphenyl)sulfanyl]carbonyl}-1-ethenyl)amino]carbonyl}phenyl)-1-diazenyl]-1-naphthyl Acetate]	35.9 ± 3.11%	83.2 ± 2.22%	–	–
1710 ± 490 nM	320 °C (dec.)	CC(=O)Oc1ccc2ccccc2c1/N=N/c1ccc(C(=O)N/C(=C/c2ccc(OC(F)(F)F)cc2)C(=O)Sc2ccc(C)cc2S)cc1 [Compound 5f, 1-((E)-2-{4-[({(E)-1-{[(4-Methyl-2-sulfanylphenyl)sulfanyl]carbonyl}-2-[4-(trifluoromethoxy)phenyl]-1-ethenyl}amino)carbonyl]phenyl}-1-diazenyl)-2-naphthyl Acetate]	34.7 ± 2.22%	80.6 ± 2.65%	–	–
